Results from patent publication US9120781B2, “Selective glycosidase inhibitors and uses thereof” (Simon Fraser University, priority 2010, dated 2015).
pKi: −log10 of the molar value.

target: human O-GlcNAcase (Homo sapiens (Human), UniProt O60502); assay: Assay for determination of KI values for inhibition of O-GlcNAcase activity (fluorescence-based hOGA); type: biochemical; settings: purified human O-GlcNAcase, 4-Methylumbelliferyl N-acetyl-β-D-glucosaminide substrate, pH 7.0, Cheng-Prusoff
Experimental: Assay for Determination of KI Values for Inhibition of O-GlcNAcase Activity
Experimental Procedure for Kinetic Analyses:
Enzymatic reactions are carried out in a reaction containing 50 mM NaH2PO4, 100 mM NaCl and 0.1% BSA (pH 7.0) using 2 mM 4-Methylumbelliferyl N-acetyl-β-D-glucosaminide dihydrate (Sigma M2133) dissolved in ddH2O, as a substrate. The amount of purified human O-GlcNAcase enzyme used in the reaction is 0.7 nM. Test compound of varying concentrations is added to the enzyme prior to initiation of the reaction. The reaction is performed at room temperature in a 96-well plate and is initiated with the addition of substrate. The production of fluorescent product is measured every 60 sec for 45 min with a Tecan Infinite M200 plate-reader with excitation at 355 nm and emission detected at […], with 4-Methylumbelliferone (Sigma M1381) used to produce a standard curve. The slope of product production is determined for each concentration of compound tested and plotted, using standard curve fitting algorithms for sigmoidal dose response curves. The values for a four parameter logistic curve fit of the data are determined.

human O-GlcNAcase, sequence (O60502 whole entry): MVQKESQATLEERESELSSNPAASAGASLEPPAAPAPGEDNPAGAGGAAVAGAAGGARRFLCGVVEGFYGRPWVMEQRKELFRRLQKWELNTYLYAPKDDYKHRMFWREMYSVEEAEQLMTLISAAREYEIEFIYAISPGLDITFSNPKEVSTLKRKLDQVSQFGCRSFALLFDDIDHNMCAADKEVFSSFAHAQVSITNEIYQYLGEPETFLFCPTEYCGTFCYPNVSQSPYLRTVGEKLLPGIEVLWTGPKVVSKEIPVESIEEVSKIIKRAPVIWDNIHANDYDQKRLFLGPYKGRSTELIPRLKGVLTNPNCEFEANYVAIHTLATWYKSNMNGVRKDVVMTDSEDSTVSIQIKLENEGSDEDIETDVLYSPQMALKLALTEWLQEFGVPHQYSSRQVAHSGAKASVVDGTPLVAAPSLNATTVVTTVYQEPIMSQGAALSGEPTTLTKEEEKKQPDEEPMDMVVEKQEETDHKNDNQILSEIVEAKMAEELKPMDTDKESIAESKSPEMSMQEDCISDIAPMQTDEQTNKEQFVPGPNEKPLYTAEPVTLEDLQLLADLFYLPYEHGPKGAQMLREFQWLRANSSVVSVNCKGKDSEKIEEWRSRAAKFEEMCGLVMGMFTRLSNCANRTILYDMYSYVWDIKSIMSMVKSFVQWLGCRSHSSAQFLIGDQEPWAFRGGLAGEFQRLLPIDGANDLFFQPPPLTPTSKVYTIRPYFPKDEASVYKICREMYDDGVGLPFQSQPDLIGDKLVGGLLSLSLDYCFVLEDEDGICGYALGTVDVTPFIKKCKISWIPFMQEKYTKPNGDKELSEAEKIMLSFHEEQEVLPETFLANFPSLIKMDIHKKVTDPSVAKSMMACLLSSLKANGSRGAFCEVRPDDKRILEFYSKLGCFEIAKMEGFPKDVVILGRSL

Structure (SMILES) | pKi
CN(C)C1=N[C@H]2[C@H](O)[C@@H](O)[C@H](CO)C[C@H]2S1 [Example 23, (3aS,4S,5S,6S,7aR)-2-(dimethylamino)-6-(hydroxymethyl)-3a,4,5,6,7,7a-hexahydrobenzo[d]thiazole-4,5-diol] | 6.32
OC[C@H]1C[C@@H]2OC(N3CCC3)=N[C@@H]2[C@@H](O)[C@@H]1O [Example 18, (3aR,4R,5R,6R,7aS)-2-(azetidin-1-yl)-6-(hydroxymethyl)-3a,4,5,6,7,7a-hexahydrobenzo[d]oxazole-4,5-diol] | 9.89
CCNC1=N[C@@H]2[C@@H](O)[C@H](O)[C@@H](CO)C[C@@H]2O1 [Example 9, (3aR,4R,5R,6R,7aS)-2-(ethylamino)-6-(hydroxymethyl)-3a,4,5,6,7,7a-hexahydrobenzo[d]oxazole-4,5-diol] | 9.22
OC[C@H]1C[C@@H]2OC(NCCF)=N[C@@H]2[C@@H](O)[C@@H]1O [Example 32, (3aR,4R,5R,6R,7aS)-2-((2-fluoroethyl)amino)-6-(hydroxymethyl)-3a,4,5,6,7,7a-hexahydrobenzo[d]oxazole-4,5-diol 2,2,2-trifluoroacetate] | 8.60
CN(C)C1=N[C@@H]2[C@@H](O)[C@H](O)[C@@H](CO)C[C@@H]2S1 [Example 22, (3aR,4R,5R,6R,7aS)-2-(dimethylamino)-6-(hydroxymethyl)-3a,4,5,6,7,7a-hexahydrobenzo[d]thiazole-4,5-diol] | 9.30
CNC1=N[C@@H]2[C@@H](O)[C@H](O)[C@@H](CO)C[C@@H]2S1 [Example 26, (3aR,4R,5R,6R,7aS)-2-(methylamino)-6-(hydroxymethyl)-3a,4,5,6,7,7a-hexahydrobenzo[d]thiazole-4,5-diol] | 9.70
